These results are taken from patent US8383129B2, “Employment of rotavirus proteins, derived proteins and peptides for the modulation of tissue permeability” (priority 2003, dated 2013).

“Also recorded” adds a separate entry of the source.

Experiment [1] deals with MDCK monolayers. The experiment can be described thus: Transepithelial electrical resistance (TER) across confluent MDCK monolayers. To be noted: for TER of MDCK monolayers treated with synthetic cyclic peptides: 100 or 500 μg/ml, versus control cultures; for TER of epithelial (MDCK) monolayers: confluent monolayers (FIG. 1: after 30 min. of treatment); for TER after withdrawal of the protein from the culture media: monolayers washed and transferred to media without GST-VP8; for dose dependence of the effect upon TER: 0.4, 4 or 10 μg/ml.
Method: MDCK cells were cultured as previously described (Gonzalez-Mariscal et al., 1990) and used for experiments between passages 70-90.
The degree of sealing of tight junctions was evaluated by measuring the transepithelial electrical resistance (TER) across the monolayer. Standard procedures were followed (Gonzalez-Mariscal et al., 1990). Briefly, monolayers grown over Millipore filters were mounted between two Lucite chambers with an exposed area of 0.23 cm2. Current was delivered via Ag—AgCl electrodes placed at 2.0 cm form the monolayer; the voltage deflection elicited was measured with a second set of electrodes placed at 1.0 mm from the membrane. The contribution if the filter and the bathing solution was subtracted, and all values reported correspond exclusively to the monolayer. Each disk was used for a single determination.
The determination of the TER across an epithelial monolayer was done as described in Example 1.

In another experiment the test system is male Wistar rats. As to the kind of experiment: Induction of diabetes: blood glucose after streptozotocin. The class given is in vivo, rat. The settings on record: 75 mg/kg intraperitoneal, three days after injection, versus mock injection. As for the experimental part: (§1) A) Generation of Diabetic Rats. • Male Wistar rats (230-250 gr.) were maintained on PicoLab® Rodent Diet 20, sterilized by irradiation and water ad libitum, in the animal house (temperature 22 to 24° C., 50 to 55% humidity). Care and handling of the animals were in accordance to international recommended procedures. • Diabetes mellitus type I was induced with one intraperitoneal shot of streptozotocin (75 mg/Kg weight; Sigma, Cat. No. S0130), diluted in citrate buffer 0.1 M (Sigma, Cat. No. S4641) pH 4.5. Streptozotocin solution was prepared immediately before use and protected from light exposure.
(§2) B) Determination of Glucose Concentration in Blood. • Using heparinized capillary tubing (Chase Scientific Glass Inc. Cat. No. 2501) a drop of blood was taken from the eye orbital sinus of the rats. Blood glucose concentration was determined using reactive strips (One Touch, LIFESCAN, Johnson & Johnson) and a commercial glucometer (One Touch Basic Plus, LIFESCAN, Johnson & Johnson). Glucose concentration was determined in healthy animals and in those that had received the streptozotocin intraperitoneal shot at least three days before being tested.

A further experiment relates to ZO-1. The experiment can be described thus: Immunolocalization of TJ protein ZO-1 in MDCK monolayers. The class given is cell-based. The settings on record: 4 μg/ml, 1 hr. Here is the method:
(§3) MDCK cells were cultured in glass coverslips. Confluent cultures were exposed to 4 μg/ml of GST-VP8 for 1 hr. The cells were then fixed for 30 min with 2% p-formaldehyde in PBS, pH 7.4, and permeabilized for 3 min with 0.2% PBS-TX. Cells were washed five times with PBS and then blocked for 30 minutes with 1% BSA Ig free (Research Organics 1331-a). The monolayers were incubated overnight at 4° C. with rabbit polyclonal antibodies against ZO-1 (Zymed 61-7300, dilution 1:100), Claudin 3 (Zymed 34-1700, dilution 3 μgr/ml) or occludin (Zymed 71-1500, dilution 1:100 in 1% Ig-free BSA). After being washed five times with PBS, the coverslips were incubated for one hour at room temperature with a secondary antibody (FITC-conjugated goat anti-rabbit, catalogue no. 65-6111, diluted 1:100, Zymed). The monolayers were washed five times in PBS before being mounted with the antifade reagent Vectashield (Vector Laboratories Inc.). The fluorescence of the monolayers was examined using a confocal microscope (MRC600, Bio-Rad) with a Krypton-argon laser.

For the next experiment, the target named is T1, claudin-3 (Canis lupus familiaris, UniProt Q95KM5).
T1 construct: endogenous in cells; host or cells: MDCK
T1 sequence (Q95KM5 1-218): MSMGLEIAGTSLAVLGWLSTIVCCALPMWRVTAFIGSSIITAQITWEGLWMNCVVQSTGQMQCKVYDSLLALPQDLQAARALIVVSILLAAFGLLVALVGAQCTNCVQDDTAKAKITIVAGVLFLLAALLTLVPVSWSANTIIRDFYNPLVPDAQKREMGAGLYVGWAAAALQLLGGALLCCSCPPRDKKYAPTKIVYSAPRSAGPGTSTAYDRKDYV
The experiment can be described thus: Immunolocalization of TJ protein claudin-3 in MDCK monolayers. To be noted: 4 μg/ml, 1 hr. The class given is cell-based. As for the experimental part: as §3

The target of another experiment is T2, occludin (Canis lupus familiaris, UniProt Q28269).
T2 construct: endogenous in cells; host or cells: MDCK
T2 sequence (Q28269 1-521): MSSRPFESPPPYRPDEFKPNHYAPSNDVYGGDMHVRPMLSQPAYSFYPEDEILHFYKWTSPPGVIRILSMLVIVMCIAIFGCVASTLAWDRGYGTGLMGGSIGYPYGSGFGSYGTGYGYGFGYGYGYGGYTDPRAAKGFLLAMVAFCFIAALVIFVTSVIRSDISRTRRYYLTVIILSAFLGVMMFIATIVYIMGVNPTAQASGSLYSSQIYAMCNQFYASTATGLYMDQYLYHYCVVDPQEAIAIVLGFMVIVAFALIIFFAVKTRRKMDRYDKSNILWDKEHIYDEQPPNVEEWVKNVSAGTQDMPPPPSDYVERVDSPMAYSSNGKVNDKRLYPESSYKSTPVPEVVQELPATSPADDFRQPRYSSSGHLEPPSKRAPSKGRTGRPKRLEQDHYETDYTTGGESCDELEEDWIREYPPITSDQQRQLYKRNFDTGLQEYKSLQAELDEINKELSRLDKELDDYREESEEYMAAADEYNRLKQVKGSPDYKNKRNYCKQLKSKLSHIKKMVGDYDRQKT
As to the kind of experiment: Immunolocalization of TJ protein occludin in MDCK monolayers. The class given is cell-based. The settings on record: 4 μg/ml, 1 hr. Here is the method:
as §3

In experiment [2] the test system is MDCK monolayers. As to the kind of experiment: Calcium-switch assay for TJ assembly (development of TER). To be noted: 4 μg/ml. It counts as cell-based. Here is the method:
The ability of VP8 to inhibit the development of TJ was assessed utilizing the Ca^2+ switch assay (Gonzalez-Mariscal et al., 1990). Cells were plated at confluency on Millipore filters and incubated for 1 hour in DMEM (normal calcium media, NC; 1.8 mM Ca^2+). Then, the resulting monolayers were washed three times with PBS without Ca^2+ and transferred to minimal essential medium without Ca^2+ (low calcium media, LC; 1-5 μM Ca^2+). Twenty hours later experimental monolayers were transferred to LC media containing 4 μg/ml of GST-VP8 or of GST-VP5 dissolved in LC media, while control monolayers were again incubated in LC media. After 30 minutes, the experimental monolayers were transferred to NC media containing 4 μg/ml of GST-VP8 or of GST-VP5. Control monolayers received instead NC media. The TER was measured at different time points after the monolayers were transferred to NC media.

In experiment [3] the test system is pancreatic cancer and gastrointestinal tumors. The settings on record: cited from earlier work.
Experiment [4] deals with rats with streptozotocin induced diabetes. The experiment can be described thus: Blood glucose after insulin administration to diabetic rats. The class given is in vivo, rat. Here is the method:
as §1, §2
C) Administration of Insulin to Diabetic Rats. • In order to study the changes in glucose concentration generated by the administration of insulin, the first blood sample was taken from diabetic animals that had fasted overnight. Immediately after, the animals received their food (Lab Diet 5053), and 30 minutes later they were treated according to the following protocols: 1) Human insulin of intermediate action (3-6 IU/rat; Humulin® N, HI-310, Lilly) was parenterally administered. 2) Human insulin of intermediate action (15-30 IU/rat; Humulin® N, HI-310, Lilly) was given orally through an esophagic rat cannula (Fine Science Tools; Cat. No. 18061-75), in a solution of 400 μl of NaHCO3 (1.5 g/100 ml, pH 8.3-8.4), to neutralize gastric acidity. 3) Employing an esophagic rat cannula, 100 μg of GST-VP8 and human insulin of intermediate action (15-30 IU/rat; Humulin® N, HI-310, Lilly) were administered orally in a solution of 400 μl NaHCO3 (1.5 g/100 ml, pH 8.3-8.4). 4) 100 μg of GST-VP8 were administered orally through an esophagic rat cannula. The level of blood glucose was determined at different times after the start of each of the above described procedures.

Another experiment deals with TJ of MDCK monolayers. As to the kind of experiment: Freeze-fracture analysis of TJ strands in MDCK monolayers. It counts as cell-based. The settings on record: 4 μg/ml, 1 hour. As for the experimental part:
Confluent monolayers of MDCK cells were incubated for 1 hour with 4 μg/ml of GST-VP8 dissolved in DMEM, while control monolayers remained in DMEM. Freeze-fracture replicas were obtained from monolayers fixed with 2.5% glutaraldehyde for 30 minutes, and gradually infiltrated with glycerol up to a 20% concentration, in which they were left for 1 hour. The monolayers were then detached from the substrate and frozen in liquid nitrogen. Freeze fracture was carried out at −120° C., and 2×10^−6 mm Hg using a Balzers apparatus (BAF400T). After evaporation of platinum and carbon, the organic material was digested for 1 hour in chromic mixture. Replicas were extensively washed in distilled water and mounted in Formvar coated grids. The observations were done in an electron microscope JEOL 200EX.
To assess modifications in the pattern of TJ strands, we counted the number of strands intercepting lines drawn perpendicular to the main axis of the junction, every 48 nm, as well as the distance between the upper and lowermost strand. 59 and 54 μm of TJ networks were analysed respectively for control and VP8 treated monolayers.
As has been previously reported (Gonzalez-Mariscal et al., 1985) the amount of junction is defined by the following function:
Where ni is the number of strands in a segment of TJ, and % is the percentage in which that number of strands is present in the sample.
Total junctional width is defined as: […]
Where ni is the distance between the upper and lowermost filament in TJ segment, and %i is the percentage in which that width is present in the sample.

On to “144VVKT147 (Rhesus Monkey Rotavirus) [SEQ. ID. No. 4]”, for which, in the experiment with MDCK monolayers [1], the “TER of MDCK monolayers treated with synthetic cyclic peptides” value (“TER of MDCK monolayers treated” for short) was “no effect; also recorded: TER similar to that of control cultures”.

In the case of “174IYTY177 (Rhesus Monkey Rotavirus) [SEQ. ID. No. 6]”, the “TER of MDCK monolayers treated” value in the experiment with MDCK monolayers [1] is “no effect; also recorded: TER similar to that of control cultures”.

As to “183NVTT186 (Rhesus Monkey Rotavirus) [SEQ. ID. No. 7]”, in the experiment with MDCK monolayers [1], the “TER of MDCK monolayers treated” value is “significantly reduces the TER; also recorded: significantly lower TER”.

Consider `CN(N=O)C(=O)N[C@H]1C(O)O[C@H](CO)[C@@H](O)[C@@H]1O` (mixture of isomers) [streptozotocin], for which the “concentration of blood glucose” value in the experiment on male Wistar rats is “significantly increased the level of glucose in the blood”; with male Wistar rats (listed as Streptozotocin) it was “significantly increases the concentration of blood glucose”.

“GST-VP8: RRV VP8 fragment (VP4 gene nucleotides 1 to 750) cloned in pGEX-4T-1, fusion protein”: the “distribution of ZO-1 (immunofluorescence)” value in the experiment with ZO-1 is “strong immuno reactivity in the cytoplasm; also recorded: strong immunoreactivity in the cytoplasm”. In the experiment with claudin-3, the “distribution of claudin-3 (immunofluorescence)” value is reported as “large areas almost devoid of lateral staining; also recorded: cell border staining becomes barely detectable in large areas of the monolayer”. In addition, in the experiment with occludin, the “distribution of occludin (immunofluorescence)” value is “broad and diffuse stain at the cell periphery; also recorded: diffuse and wide label at the cellular boundaries”. Besides, the “development of TER / epithelial paracellular barrier after transfer from low to normal calcium media” value in the experiment on MDCK monolayers [2] is recorded as “delays the development of the epithelial paracellular barrier”. Also, the “TER of epithelial (MDCK) monolayers” value with MDCK monolayers [1] (4 μg/ml) is reported as “significant decrease in TER”; in the experiment with MDCK monolayers [1] (4 μg/ml, listed as VP8-GST), “significantly reduces the TER”. Also, the “TER after withdrawal of the protein from the culture media” value is “recover their TER” with MDCK monolayers [1] (4 μg/ml) and “the TER of the monolayers is restored” with MDCK monolayers [1] (4 μg/ml, listed as GST-VPB). For the same compound, the “dose dependence of the effect upon TER” value in the experiment with MDCK monolayers [1] is given as “dose-dependent decrease in TER”.

On to TGFβ, for which the tumor growth entry in experiment [3] is listed as “significant reduction of tumor growth”.

With “VP8: polypeptide derived from rotavirus protein VP4; used in the experiments as GST or His fusion protein”, in experiment [4] (VP8 100 μg and insulin 30 IU, oral), the “blood glucose concentration, insulin administered orally together with VP8” value is “the blood glucose concentration diminishes; also recorded: diminishes significantly”. The “blood glucose concentration, VP8 administered orally alone” value in experiment [4] (VP8 100 μg, oral, no insulin) was “Only with the latter treatment the blood glucose concentration diminished”. In the experiment with TJ of MDCK monolayers, the “TJ freeze fracture pattern” value is on record as “induces the appearance of loose ends oriented perpendicular to the network of TJ fibrils”. Besides, in the experiment on TJ of MDCK monolayers (versus control monolayers), the “distribution of the number of TJ strands” value was “no change” and the “total amount of junction” value is “no change”. In the experiment with TJ of MDCK monolayers (control monolayers 0.17), the “Number of loose ends/linear amount of junction in μm” value is 0.32. Besides, the “development of TER / epithelial paracellular barrier after transfer from low to normal calcium media” value in the experiment on MDCK monolayers [2] is listed as “a clear inhibition in the development of TER”. In the experiment with MDCK monolayers [1] (4 μg/ml), the “TER of epithelial (MDCK) monolayers” value is “diminishes the TER”. For the same compound, in the experiment on MDCK monolayers [1] (4 μg/ml, protein kept in media), the “reversibility with time of the effect upon TER” value is given as “reversible with time; also recorded: in a reversible manner”. In the experiment on MDCK monolayers [1], the “dose dependence of the effect upon TER” value is “dose dependent”.

Take “insulin: Human insulin of intermediate action (Humulin® N, HI-310, Lilly) [reference compound]”: the “blood glucose concentration, insulin administered orally alone” value in experiment [4] (30 IU, oral) was “the concentration of glucose remains high; also recorded: does not diminish the blood glucose concentration”. Also, in experiment [4] (Humulin, intermediate action, 6 IU, parenteral), the “blood glucose concentration, insulin administered parenterally” value was “decreases the blood glucose concentration”.
